Data on one compound can be found in patent US8357117B2, “Device and method for delivering an agent into breast milk while breastfeeding” (Family Health International, priority 2008, dated 2013).

The nature of this series: release of SDS from dried SDS-dipped non-woven disk in 10 ml syringe, water gravity fed. The series is classed as physicochemical. The conditions noted are these: non-woven dipped in 20% SDS solution, 3 mm thick disk, no excipients. An excerpt: It was an unexpected result that, without the use of any excipients, a non-woven material could be dipped into an SDS solution to achieve significant loading and release of SDS. Specifically, a piece of soft non-woven material was dipped in a 20% solution of SDS, then dried on a drying rack. After drying, the material was hard and stiff, and felt like a piece of cardboard. It appeared unlikely that the resulting material would even be permeable to water.

For the compound `CCCCCCCCCCCCOS(=O)(=O)[O-].[Na+]` [SDS, sodium dodecyl sulphate], the “release of SDS into water” value is given as “rapidly released”.
